Assay in all cases: growth of human tumour cells (NCI), 48 h
In test [1] the test system is K-562 leukemia.
Test [2] has as its system HS 578T breast.
For test [3], the system named is IGROV1 ovarian.
The test system of test [4] is MDA-N.
In test [5] the test system is KM12 colon.
Test [6] concerns MDA-MB-435.
The subject of test [7] is MCF7 breast.
Test [8] concerns OVCAR-8 ovarian.
The subject of test [9] is NCI-H460 lung.
The subject of test [10] is SF-539 CNS.
Test [11] relates to A549 NSCLC.
The subject of test [12] is HCT-116 colon.
Test [13] deals with CAKI-1 renal.

We go through 11 molecules from PubChem BioAssay (NCI).

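These data come from cells grown in 96-well plates and exposed to compound for 48 hours at five concentrations. TGI: total growth inhibition.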 Where a SMILES comes first, the peptide text is derived from it.

`O=C(CN=C(CN(c1ccccc1)c1ccccc1)Oc1ccc(Cl)cc1Cl)n1ccnc1`: the TGI in test [1], in test [2], in [3], in test [4], in test [5] and in test [6] was more than 100 µM in each case. In addition, the TGI in test [7], in test [8], in test [9], in test [10], in test [11] and in test [12] was more than 100 µM throughout.

`C(#CC1(Nc2ccccc2)CCN(Cc2ccccc2)CC1)C1(Nc2ccccc2)CCN(Cc2ccccc2)CC1`: the TGI in test [1] is 16.1 µM; in [2], 37.2 µM; in test [3], more than 46.4 µM; in test [4], more than 56.2 µM; in test [5] it was more than 56.2 µM; in test [6] it was more than 100 µM. Also, the TGI in [7] was more than 56.2 µM; in test [8], 53.5 µM; in test [9], more than 46.4 µM; in [13], 44.5 µM; in test [10], 34.9 µM; in test [11], more than 56.2 µM. The TGI in test [12] is 54.2 µM.

Turning to `CCCCC1(O)CC2CC1C(C)C2(C)C` (stereo unspecified), the TGI in test [1], in test [2], in [3], in test [4], in test [5] and in [6] was more than 100 µM each time. For the same molecule, the TGI in [7], in test [8], in test [13], in [10], in [11] and in test [12] was more than 100 µM each time.

For the molecule `O=S(=O)(CCC[C@H]1[C@@H](CCOCc2ccccc2)C2CCCN1O2)c1ccccc1` (stereo partly specified), the TGI in [1], in test [2], in test [3], in test [4], in test [5] and in test [6] was more than 100 µM in each case. Moreover, the TGI in test [7], in test [8], in test [9], in test [13], in [10] and in test [11] was more than 100 µM throughout. For the same molecule, the TGI in test [12] is more than 100 µM.

With `O=[N+]([O-])/C(Cl)=C/C(=C1/Nc2ccccc2O1)[N+](=O)[O-]`, the TGI in [1] is 87.1 µM; in [2] it was 84.1 µM; in [3] it was more than 100 µM; in test [4] it was 46 µM; in test [5] it was 36.2 µM; in [6], 32 µM. Also, the TGI in test [7] is more than 100 µM; in test [8], 40.5 µM; in [9] it was 81 µM; in test [13], 45.9 µM; in test [10], 59.4 µM; in test [11], more than 100 µM. The same molecule gave a TGI in [12] of 28.6 µM.

In the case of `C=C(Cl)C(C)(Cl)CCC(Cl)C(C)C` (stereo unspecified), the TGI in test [1], in test [2], in test [3], in [4], in test [5] and in test [6] was more than 100 µM throughout. Also, the TGI in test [7], in test [9], in [13], in test [10], in [11] and in [12] was more than 100 µM in each case.

In the case of `NC(=O)Cn1c(=O)oc2cc(C(=O)CN3CCOCC3)ccc21`, the TGI in [1], in [2], in test [3], in test [4], in test [5] and in [6] was more than 100 µM throughout. The TGI in test [7], in test [8], in [13], in test [10] and in [12] was more than 100 µM each time.

Turning to `CCC1CCC2c3c([nH]c4ccc(C)cc34)C3C(=O)N(N(C)C)C(=O)C3C2C1` (stereo unspecified), the TGI was more than 57 µM in test [1]; 33 µM in test [2]; more than 100 µM in [3]; 4.52 µM in test [4]; more than 100 µM in test [5]; more than 33.4 µM in [6]. Moreover, the TGI in test [7] is more than 100 µM; in test [8], more than 100 µM; in [9], more than 68 µM; in test [13], more than 100 µM; in test [10], 45.5 µM; in [11] it was more than 100 µM. The molecule further returned a TGI in test [12] of 52.9 µM.

Turning to `CCCCCCCCCCOCCOCCOCCOCCCCC(O)CCCCCCCC1=C[C@H](C)OC1=O` (stereo partly specified), the TGI stood at 36.3 µM in test [1]; 31.1 µM in test [2]; 30.5 µM in test [3]; 24.3 µM in [4]; 23.9 µM in test [5]; 28.2 µM in test [6]. Besides, the TGI was found to be 20 µM in [7]; 33.6 µM in [8]; 22 µM in test [9]; 32.2 µM in [13]; 24.5 µM in test [10]; 29.9 µM in test [11]. For the same molecule, in test [12], the TGI worked out at 37.7 µM.

As for `Cc1ccc(C(=O)Oc2ccc(/C=C3\CCC/C(=C\c4ccc(OC(=O)c5ccc(C)cc5)cc4)C3=O)cc2)cc1`, the TGI in test [2], in test [3], in test [4], in test [5], in test [6] and in test [7] was more than 100 µM each time. The TGI in test [8], in test [9], in test [13], in test [10], in test [11] and in test [12] was more than 100 µM throughout.

On to `CCC(C)C(NC(=O)C(CC(C)C)NC(=O)CNC(=O)C(NC(=O)C1CCCN1C(=O)C(CC(C)C)NC(=O)C(N)Cc1ccccc1)C(C)CC)C(=O)NC(CC(C)C)C(N)=O` (stereo unspecified) (H-FLPIGLIL-NH2; configuration not given here), for which the TGI in test [1], in test [2], in [3], in test [4], in [5] and in test [6] was more than 75 µM each time. Also, the TGI in test [7], in test [8], in [13], in [10], in test [11] and in [12] was more than 75 µM each time.
